Counter-ions that a name gives are not always drawn.

Assay [1] concerns the target Farnesyl-protein transferase (FPTase). The assay can be described thus: In vitro inhibition of ras farnesyl transferase (Ras-CVLS, [3H]FPP). Particulars: Ras-CVLS 3.5 μM, 0.25 μM [3H]FPP; partially purified bovine or recombinant human enzyme; read-out: IC50 (concentration of the test compound which gives 50% inhibition of FPTase). Type of assay: biochemical, bovine brain or recombinant human.
Procedure: Ras-CVLS at 3.5 μM, 0.25 μM [^3 H]FPP, and the indicated compounds were incubated with either a partially purified bovine enzyme preparation or a recombinant human enzyme preparation.

Assay [2] concerns Ras farnesylation in the v-ras cell line (viral Ha-ras p21). Description: In vivo ras farnesylation assay (v-ras cell line, immunoprecipitation, percent inhibition of farnesyl transfer to protein). In kind it is cell-based. Particulars: 4 h at 37° C. then additional 20 h labelling with [35S]methionine. Here is the method:
In vivo ras farnesylation assay
The cell line used in this assay was the v-ras line, which expressed viral Ha-ras p21. The assay was performed essentially as described in DeClue, J. E. et. al., Cancer Research 51,712-717, (1991). Cells in 10 cm dishes at 50-75% confluency were treated with the test compound (final concentration of solvent, methanol or dimethyl sulfoxide, was 0.1%). After 4 hours at 37° C., the cells were labelled in 3 ml methionine-free DMEM supplemeted with 10% regular DMEM, 2% fetal bovine serum and 400 μCi[^35 S]methionine (1000 Ci/mmol). After an additional 20 hours, the cells were lysed in 1 ml lysis buffer (1% NP40/20 mM HEPES, pH 7.5/5 mM MgCl2 /1 mM DTT/10 μg/ml aprotinen/2 μg/ml leupeptin/2 μg/ml antipain/0.5 mM PMSF) and the lysates cleared by centrifugation at 100,000×g for 45 min. Aliquots of lysates containing equal numbers of acid-precipitable counts were bought to 1 ml with IP buffer (lysis buffer lacking DTT) and immunoprecipitated with the ras-specific monoclonal antibody Y13-259 (Furth, M. E. et. al., J. Virol. 43, 294-304, (1982)). Following a 2 hour antibody incubation at 4° C., 200 μl of a 25% suspension of protein A-Sepharose coated with rabbit anti rat IgG was added for 45 min. The immunoprecipitates were washed four times with IP buffer ([…] HEPES, pH 7.5/1 mM EDTA/1% Triton X-100.0.5% deoxycholate/0.1%/SDS/0.1M NaCl) boiled in SDS-PAGE sample buffer and loaded on 13% acrylamide gels. When the dye front reached the bottom, the gel was fixed, soaked in Enlightening, dried and autoradiographed. The intensities of the bands corresponding to farnesylated and nonfarnesylated ras proteins were compared to determine the percent inhibition of farnesyl transfer to protein.

The test system of a further assay is Ras farnesylation. Particulars: Hancock et al.; Casey et al.; Schafer et al., Science 245:379 (1989); cited from earlier work.

On to “1-[2(R)-Amino-3-mercaptopropyl]-4-(1-naphthoyl)-2(S)-(3-methoxy-1-propyl)piperazine dihydrochloride [Example 18]”, for which the IC50 in assay [1] worked out at 1 nM.

For the compound `CCCC[C@H]1CN(C(=O)c2cccc(C)c2C)CCN1C[C@@H](N)CS` [Example 3, 1-[2(R)-Amino-3-mercaptopropyl]-2(S)-n-butyl-4-(2,3-dimethylbenzoyl)piperazine dihydrochloride], the IC50 is 5000 nM in assay [2] and 6 nM in assay [1].

Regarding `Cc1cccc(C(=O)N2CCN(C[C@@H](N)CS)[C@@H](Cc3ccccc3)C2)c1C` [Example 6, 1-[2(R)-Amino-3-mercaptopropyl]-2(S)-benzyl-4-(2,3-dimethylbenzoyl)piperazine dihydrochloride], the IC50 in assay [2] is 500 to 1000 nM; in assay [1] it was 4 nM.

Turning to `COCC[C@H]1CN(C(=O)c2cccc(C)c2C)CCN1C[C@@H](N)CS` [Example 7, 1-[2(R)-Amino-3-mercaptopropyl]-4-(2,3-dimethylbenzoyl)-2(S)-(2-methoxyethyl)piperazine dihydrochloride], the IC50 in assay [2] fell in the range of 500 to 1000 nM.

On to `CSCC[C@H]1CN(C(=O)c2cccc(C)c2C)CCN1C[C@@H](N)CS` [Example 8, 1-[2(R)-Amino-3-mercaptopropyl]-4-(2,3-dimethylbenzoyl)-2(S)-(2-methylthioethyl)piperazine dihydrochloride], for which the figures for the IC50 in assay [2] and in assay [1] were 500 to 1000 nM and 11 nM, respectively.

`COCC[C@H]1CN(C(=O)c2cccc3ccccc23)CCN1C[C@@H](N)CS` [Example 12, 1-[2(R)-Amino-3-mercaptopropyl]-4-(1-naphthoyl)-2(S)-(2-methoxyethyl)piperazine dihydrochloride]: the IC50 came to 500 nM in assay [2] and 5 nM in assay [1].

On to `CCCOCC[C@H]1CN(C(=O)c2cccc3ccccc23)CCN1C[C@@H](N)CS` [Example 13, 1-[2(R)-Amino-3-mercaptopropyl]-2(S)-(2-(1-propoxy)ethyl)-4-(1-naphthoyl)piperazine dihydrochloride], for which the results for the IC50 in assay [2] and in assay [1] were 500 nM and 3 nM, respectively.

As to `N[C@@H](CS)CN1CCN(C(=O)c2cccc3ccccc23)C[C@@H]1CCOCc1cccnc1` [Example 14, 1-[2(R)-Amino-3-mercaptopropyl]-2(S)-(2-(3-pyridylmethoxy)ethyl)-4-(1-naphthoyl)piperazine trihydrochloride], the IC50 in assay [1] was 1 nM.

For the compound `CCCOCC[C@H]1CN(C(=O)c2cccc3cccnc23)CCN1C[C@@H](N)CS` [Example 15, 1-[2(R)-Amino-3-mercaptopropyl]-2(S)-(2-(1-propoxy)ethyl)-4-(8-quinolinylcarbonyl)piperazine trihydrochloride], the IC50 in assay [1] is 6 nM.

For `CCCC[C@H]1CN(C(=O)c2cccc3ccccc23)CCN1C[C@@H](N)CS` [Example 16, 1-[2(R)-Amino-3-mercaptopropyl]-2(S)-n-butyl-4-(1-naphthoyl)piperazine dihydrochloride], the results for the IC50 in assay [2] and in assay [1] were 500 nM and 2 nM, respectively.

With `CCCC[C@H]1CN(C(=O)c2cccc3c2OCC3)CCN1C[C@@H](N)CS` [Example 17, 1-[2(R)-Amino-3-mercaptopropyl]-2(S)-n-butyl-4-[7-(2,3-dihydrobenzofuranoyl)]piperazine dihydrochloride], the IC50 was determined as 500 nM in assay [2] and 6 nM in assay [1].

In the case of `CCCC[C@H]1CN(C(=O)c2cccc3cccnc23)CCN1C[C@@H](N)CS` [Example 19, 1-(2(R)-Amino-3-mercaptopropyl)-2(S)-n-butyl-4-(8-quinolinylcarbonyl)piperazine trihydrochloride], the IC50 in assay [2] amounted to 1000 nM; in assay [1], 5 nM.

For the compound `COCC[C@H]1CN(C(=O)c2cccc3ccccc23)CCN1C[C@@H](N)CSSC[C@H](N)CN1CCN(C(=O)c2cccc3ccccc23)C[C@@H]1CCOC` [Example 21, bis-1, 1'-[2(R)-Amino-3-(2(S)-(2-methoxyethyl)-4-naphthoyl-1-piperazinyl)]propyl disulfide tetrahydrochloride], the IC50 in assay [1] came to 1 nM.

`CC(=O)NCCCC[C@H]1CN(C(=O)c2cccc3ccccc23)CCN1C[C@@H](N)CS` [Example 27, 1-[2(R)-Amino-3-mercaptopropyl]-4-(1-naphthoyl)-2(S)-(4-acetamidobutyl)piperazine dihydrochloride]: the IC50 is 500 nM in assay [2] and 3.5 nM in assay [1].

As to `N[C@@H](CS)CN1CCCN(C(=O)c2cccc3ccccc23)CC1` [Example 28, 1-(2(R)-Amino-3-mercaptopropyl)-4-(1-naphthoyl)homopiperazine dihydrochloride], the results for the IC50 in assay [2] and in assay [1] were 10000 nM and 21 nM, respectively.

On to `NC(CS)CN1CCN(C(=O)c2cccc3ccccc23)CC1C(=O)N1CCCCC1` [Example 30, 1-(2(R)-Amino-3-mercaptopropyl)-4-(1-naphthoyl)-2(S)-piperidylcarboxyl-4-piperazine dihydrochloride], for which the values for the IC50 in assay [2] and in assay [1] were 500 nM and 3 nM, respectively.

On to `COC(=O)C1CN(C[C@@H](N)CS)CCN1Cc1cccc2ccccc12` (stereo partly drawn) [Example 31, Methyl 4-(2(R)-amino-3-mercaptopropyl)-l-(1-naphthylmethyl)piperazine-2-carboxylate hydrochloride], for which the IC50 in assay [2] worked out at 10000 nM; in assay [1], 2.9 nM.

For the compound `CC[C@H](C)C(=O)O[C@H]1CCC=C2C=C[C@H](C)[C@H](CC[C@@H]3C[C@@H](O)CC(=O)O3)[C@H]21` [compactin], the “Inhibition of Ras farnesylation in vivo” value in the assay with Ras farnesylation was “Inhibition of Ras farnesylation in vivo has been demonstrated”.

In the case of `CC[C@H](C)C(=O)O[C@H]1C[C@@H](C)C=C2C=C[C@H](C)[C@H](CC[C@@H]3C[C@@H](O)CC(=O)O3)[C@H]21` [lovastatin], the “Inhibition of Ras farnesylation in vivo” value in the assay on Ras farnesylation is reported as “Inhibition of Ras farnesylation in vivo has been demonstrated”.

Values taken from US5736539A, “Inhibitors of farnesyl-protein transferase” (Merck & Co., Inc., priority 1995, dated 1998).
